Laboratory results from ChEMBL document CHEMBL1158015, “New steroid glycosides from the deep-water starfish Mediaster murrayi” (J Nat Prod, 1999).

Tests used:
[1] = Inhibition of cell division of sea urchin fertilized eggs at 100 uM; type: functional; conditions: Strongylocentrotus intermedius, Egg
[2] = Toxicity in mouse erythrocytes assessed as hemolysis; type: cell-based, Erythrocyte; conditions: read-out: ED50 (the source's name)
[3] = Inhibition of cell division of sea urchin fertilized eggs at 25 uM; type: functional; conditions: Strongylocentrotus intermedius, Egg

| Structure (SMILES) | inhibition at 100 µM [1] [%] | HC50 [2] [µM] | inhibition at 25 µM [3] [%] |
| --- | --- | --- | --- |
| CC(C)[C@H](CC[C@@H](C)[C@H]1C[C@@H](O)[C@@H]2[C@]1(C)CC[C@H]1[C@@]2(O)C[C@H](O)C2C[C@@H](O)CC[C@@]21C)O[C@@H]1O[C@@H](CO[C@@H]2OC[C@@H](O)[C@H](O)[C@H]2O)[C@H](O)[C@H]1O (some centres undefined) [MEDIASTEROSIDE M2] | 100 | 35 |  |
| CO[C@H]1[C@H](OC[C@@H]2O[C@@H](O[C@@H](CC[C@@H](C)[C@H]3C[C@@H](O)[C@@H]4[C@]3(C)CC[C@H]3[C@@]4(O)C[C@H](O)C4C[C@@H](O)CC[C@@]43C)C(C)C)[C@H](O)[C@H]2O)OC[C@@H](O)[C@@H]1O (some centres undefined) [MEDIASTEROSIDE M1] |  | 66 | 100 |
